Laboratory results reported in ChEMBL document CHEMBL1129868 (Bioorg Med Chem Lett, 1997).

Assays:
Adrenergic receptor beta = Adrenergic receptor beta (Rattus norvegicus, UniProt P18090+P10608+P26255); assay: The compound was tested for its ability to inhibit (-)-[3H]dihydroalprenolol binding to beta-adrenergic receptor sites in rat cortex
[1] = Ratio of beta-1-adrenergic blocking effect to that of beta 2 -adrenergic blocking effect; type: functional
[2] = target: Beta-1 adrenergic receptor (Cavia porcellus, UniProt B0FL73); assay: Tested for beta-1-adrenergic blocking effect by measuring the ability to inhibit the positive inotropic effect of isoproterenol on the isolated right atrium of guinea pigs; type: functional, tissue-based, Cardiac atrium
Beta-1 adrenergic receptor, sequence (B0FL73 whole entry): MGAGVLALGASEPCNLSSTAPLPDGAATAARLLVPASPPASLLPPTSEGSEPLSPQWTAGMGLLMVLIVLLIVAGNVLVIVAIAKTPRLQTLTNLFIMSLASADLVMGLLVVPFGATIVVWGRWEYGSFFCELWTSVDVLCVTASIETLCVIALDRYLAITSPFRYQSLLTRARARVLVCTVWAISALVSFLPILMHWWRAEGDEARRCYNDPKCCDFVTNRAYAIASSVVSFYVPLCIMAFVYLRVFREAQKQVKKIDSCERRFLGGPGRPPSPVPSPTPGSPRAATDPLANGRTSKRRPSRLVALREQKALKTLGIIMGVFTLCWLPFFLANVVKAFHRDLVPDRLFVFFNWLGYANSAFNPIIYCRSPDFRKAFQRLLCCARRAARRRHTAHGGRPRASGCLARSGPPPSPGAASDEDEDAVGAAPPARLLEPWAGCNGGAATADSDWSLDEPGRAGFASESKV

| IC50 (Adrenergic receptor beta) | IC50 [2] | Compound | Ratio [1] |
| --- | --- | --- | --- |
| > 100 µM | – | COCCc1ccc(OC(F)(F)[C@H](O)CNC(C)C)cc1 | – |
| 1.54 µM | 1.35 µM | COCCc1ccc(OC(F)(F)[C@@H](O)CNC(C)C)cc1 | 0.63 |
